Assay results reported in US8435929B2, “1-aminocyclopropane carboxylic acid as a fruit thinner” (Valent BioSciences Corporation, priority 2009, dated 2013).

What was measured:
Babygold #5 peaches = assay: Scaffold gummosis rating of Babygold #5 peaches; assay type: in vivo, peach; conditions: in vivo
From the text: Gummosis is a physiological stress response in which sap oozes from fractures in tree bark and often leads to tree decline. Use of 2-chloroethylphosphonic acid as a stone fruit thinning has been limited because it can stimulate severe incidences of gummosis of stone fruit.

Rose Diamond nectarines = assay: Field thinning study, fruit set of Rose Diamond nectarines; assay type: in vivo, nectarine; conditions: application at late shuck fall
Fuji apples = assay: Field thinning study, fruit set and fruit weight of Fuji apples; assay type: in vivo, apple
From the text: ACC was foliar applied at the 10 or 20 mm fruit stage. […] Application of 100 ppm ACC was particularly effective in removing fruit when applied at the 20 mm fruit stage.
Similarly, ACC applications at petal fall were not effective for thinning Fuji apples, but later applications (10 and 20 mm) were effective (Table 14).

Chardonnay grapes = assay: Thinning study on Chardonnay grapes (cluster weight, berry weight, berries per rachis, rachis length); assay type: in vivo, grape; conditions: application at bloom
From the text: Application of ACC on grapes during bloom reduced the cluster weight and number of berries/cm rachis (Table 15). However, ACC applications produce the highly undesirable effect of reducing the rachis length and cluster size. Similar results have been seen in trials on other grape varieties in Michigan, California, and Australia.

PF-27 peaches = assay: Field thinning study, ACC and ABA, fruit set of PF-27 peaches; assay type: in vivo, peach; conditions: application at shuck split
From the text: Application of ACC alone at shuck split reduced fruit set in a dose dependent manner (Table 10).

[1] = 100 ppm, application timing 10 mm
[2] = 100 ppm, application timing 20 mm
[3] = 300 ppm, application timing 10 mm
[4] = 300 ppm, application timing 20 mm
[5] = 1000 ppm, application timing 10 mm
[6] = 1000 ppm, application timing 20 mm

NC1(C(=O)O)CC1 [ACC, 1-aminocyclopropane carboxylic acid]
Gummosis (in words) (Babygold #5 peaches): little gummosis
Crop load (percent) of treated trees compared to the untreated control (Rose Diamond nectarines; 125 ppm): 88%
Percent fruit set (Rose Diamond nectarines; 125 ppm): 60%
Crop load (percent) of treated trees compared to the untreated control (Rose Diamond nectarines; 250 ppm): 90%
Percent fruit set (Rose Diamond nectarines; 250 ppm): 61%
Crop load (percent) of treated trees compared to the untreated control (Rose Diamond nectarines; 500 ppm): 65%
Percent fruit set (Rose Diamond nectarines; 500 ppm): 44%
Crop load (percent) of treated trees compared to the untreated control (Rose Diamond nectarines; 1000 ppm): 24%
Percent fruit set (Rose Diamond nectarines; 1000 ppm): 16%
Fruit weight (Fuji apples; [1]): 95 g
Fruit/fruit cluster (Fuji apples; [1]): 0.79
Fruit weight (Fuji apples; [2]): 130 g
Fruit/fruit cluster (Fuji apples; [2]): 0.54
Fruit weight (Fuji apples; [3]): 117 g
Fruit/fruit cluster (Fuji apples; [3]): 0.66
Fruit weight (Fuji apples; [4]): 132 g
Fruit/fruit cluster (Fuji apples; [4]): 0.41
Fruit per fruit cluster (Fuji apples; 500 ppm, timing 10 mm (6-7 mm) (Table 14 trial)): 0.27
Fruit per fruit cluster (Fuji apples; 500 ppm, timing 20 mm (Table 14 trial)): 0.33
Fruit per fruit cluster (Fuji apples; 500 ppm, timing petal fall (Table 14 trial)): 0.49
Fruit weight (Fuji apples; [5]): 157 g
Fruit/fruit cluster (Fuji apples; [5]): 0.28
Fruit weight (Fuji apples; [6]): 161 g
Fruit/fruit cluster (Fuji apples; [6]): 0.03
Fruit per fruit cluster (Fuji apples; 1000 ppm, timing 10 mm (6-7 mm) (Table 14 trial)): 0.10
Fruit per fruit cluster (Fuji apples; 1000 ppm, timing petal fall (Table 14 trial)): 0.39
Thinning of Fuji apples (in words) (Fuji apples; applications at petal fall): not effective
Berries per cm rachis (Chardonnay grapes; 100 ppm): 3.1
Berry weight (Chardonnay grapes; 100 ppm): 1.2 g
Cluster weight (Chardonnay grapes; 100 ppm): 128 g
Rachis length (cm) (Chardonnay grapes; 100 ppm): 34 cm
Berries per cm rachis (Chardonnay grapes; 300 ppm): 2.9
Berry weight (Chardonnay grapes; 300 ppm): 1.2 g
Cluster weight (Chardonnay grapes; 300 ppm): 78 g
Rachis length (cm) (Chardonnay grapes; 300 ppm): 23 cm
Berries per cm rachis (Chardonnay grapes; 1000 ppm): 1.6
Berry weight (Chardonnay grapes; 1000 ppm): 1.1 g
Cluster weight (Chardonnay grapes; 1000 ppm): 24 g
Rachis length (cm) (Chardonnay grapes; 1000 ppm): 14 cm
Crop load (percent) of treated trees compared to the untreated control (PF-27 peaches; 100 ppm): 81%
Percent fruit set (PF-27 peaches; 100 ppm): 70%
Crop load (percent) of treated trees compared to the untreated control (PF-27 peaches; 300 ppm): 67%
Percent fruit set (PF-27 peaches; 300 ppm): 58%
Crop load (percent) of treated trees compared to the untreated control (PF-27 peaches; 1000 ppm): 15%
Percent fruit set (PF-27 peaches; 1000 ppm): 13%
